The source of these data is patent publication US20040258676A1, “Stimulation of the activity of an isoform of lysyl oxidase for combating against some pathologies due to an incomplete, absent or disorganized elastogenesis” (COLETICA, priority 2003, published 2004).

One test deals with elastin (Eln) mRNA. In words: Screening of actives by qualitative RT-PCR, elastin mRNA in aged adult fibroblasts (Example 9). It counts as cell-based. The conditions noted are these: actives at 1% (v/v), 24 hours, fibroblasts of normal human skin of aged adults; compared to actin and to negative control. How it is done:
(§1) The actives were tested at 1% (v/v) on fibroblasts of normal human skin (originating from healthy <<aged >> adults). The culture was carried out, e.g. in a monolayer on 24-well culture plates, in a defined medium without serum (Fibroblast Basal Medium, Promocell, Germany). The cells were sown, e.g. at 40,000 per cm^2. At the confluence, the cells are placed in contact with the actives advantageously for 24 hours. In parallel, a non-treated control (medium alone) and three positive controls (TGF-β at 1 ng/ml, IL-1α at 50 pg/ml and Phytokine® (Coletica, France) at 2%(v/v)) are advantageously carried out, e.g. on the same culture plate. The TGF-β at 1 ng/ml and the IL-1α at 50 pg/ml were tested beforehand and the stimulation of the synthesis of elastin mRNA induced by these two cytokines at these concentrations was verified by an analysis of the mRNAs, e.g. by quantitative RT-PCR (×10 for TGF-β and x6 for IL-1 alpha). […] The total RNAs are extracted e.g. with the aid of an extraction kit of 96 wells on silica columns and were determined on a 96-well spectrophotometer at 260 nm (purity indicator: protein determination at 280 nm). […] The photographs of the gels were analyzed by image analysis and quantification of the intensity of the bands (Phoretix1D Quantifier, Non Linear Dynamics Ltd, USA). […]

In another test the test system is LOX mRNA. In words: Screening of actives by qualitative RT-PCR, LOX mRNA in aged adult fibroblasts (Example 9). It counts as cell-based. The note with it: actives at 1% (v/v), 24 hours, fibroblasts of normal human skin of aged adults; compared to actin and to negative control. On the procedure:
as §1

The test system of a further test is elastin mRNA. Description: Verification of positive controls: stimulation of the synthesis of elastin mRNA by quantitative RT-PCR. The format is cell-based, human. The conditions noted are these: TGF-β at 1 ng/ml. On the procedure: The TGF-β at 1 ng/ml and the IL-1α at 50 pg/ml were tested beforehand and the stimulation of the synthesis of elastin mRNA induced by these two cytokines at these concentrations was verified by an analysis of the mRNAs, e.g. by quantitative RT-PCR (×10 for TGF-β and x6 for IL-1 alpha). After the time of placing the actives in contact with the cells, e.g. 24 hours, the media are removed and the cells are preserved e.g. by dry freezing at −80° C. after a rinsing in phosphate buffer pH 7.4. The total RNAs are extracted e.g. with the aid of an extraction kit of 96 wells on silica columns and were determined on a 96-well spectrophotometer at 260 nm (purity indicator: protein determination at 280 nm). […]
The actives were tested at 1% (v/v) on human scar tissue skin fibroblasts (surgical recovery of hypertropic scar after caesarean) in premature passage (lower than 5 passages). […] The TGF-β at 1 ng/ml and the IL-1α at 50 pg/ml were tested beforehand and the stimulation of the synthesis of elastin mRNA induced by these two cytokines at these concentrations was verified by an analysis of the mRNAs, e.g. by quantitative RT-PCR (x10 for TGF-β and x6 for IL-1 alpha). […] The total RNAs are extracted e.g. with the aid of an extraction kit of 96 wells on silica columns and were determined on a 96-well spectrophotometer at 260 nm (purity indicator: protein determination at 280 nm). […]

As to `OC[C@@H](O)[C@H](O)[C@@H](O)CO` [Xylitol], the “Eln Control multiplied by:” value in the test on elastin (Eln) mRNA was determined as 0.27. Also, the “LOX Control multiplied by:” value in the test on LOX mRNA was 3.10.

As to TGF-β, the “stimulation of the synthesis of elastin mRNA” value with elastin mRNA is recorded as 10 x.
